According to patent US20230150953A1, “SUBSTITUTED ISOPHTHALIC ACID DIAMIDES” (Bayer Aktiengesellschaft, priority 2020, published 2023):

What was measured:
Format in all cases: in vivo
[1] = test system: AMARE Amaranthus retroflexus; test: Post-emergence herbicidal action against harmful plants; settings: one-leaf stage, assessed visually after about 3 weeks vs untreated controls
Excerpt: (§1) The abbreviations used for the harmful plants mean: • ABUTH Abutilon theophrasti ALOMY Alopecurus myosuroides • AVEFA Avena fatua AMARE Amaranthus retroflexus • CYPES Cyperus esculentus DIGSA Digitaria sanguinalis • ECHCG Echinochloa crus-galli HORMU Hordeum murinum • LOLMU Lolium multiflorum LOLRI Lolium rigidum • MATIN Matricaria inodora PHBPU Pharbitis purpurea • POLCO Polygonum convolvulus SETVI Setaria viridis • STEME Stellaria media VERPE Veronica persica • VIOTR Viola tricolor 2. Post-Emergence Herbicidal Action Against Harmful Plants Seeds of monocotyledonous and dicotyledonous weed and crop plants are laid out in sandy loam soil in wood-fiber pots, covered with soil and cultivated in a greenhouse under good growth conditions. 2 to 3 weeks after sowing, the test plants are treated at the one-leaf stage. The compounds of the invention, formulated in the form of wettable powders (WP) or as emulsion concentrates (EC), are then sprayed onto the green parts of the plants in the form of an aqueous suspension or emulsion at a water application rate equivalent to 600 to 800 l/ha, with addition of 0.2% wetting agent. After the test plants have been left to stand in the greenhouse under optimal growth conditions for about 3 weeks, the action of the preparations is assessed visually in comparison to untreated controls (herbicidal action in percent (%): 100% activity=the plants have died, 0% activity=like control plants). […] The tables below illustrate, in an illustrative manner, the post-emergence herbicidal action of the compounds of the invention, the herbicidal activity being stated in percent.

[2] = test system: ALOMY Alopecurus myosuroides; test: as above; settings: one-leaf stage, assessed visually after about 3 weeks vs untreated controls
Excerpt: as §1

[3] = test system: POLCO Polygonum convolvulus; test: as above; settings: one-leaf stage, assessed visually after about 3 weeks vs untreated controls
Excerpt: as §1

PHBPU Pharbitis purpurea [4] = test: as above; settings: 20 g/ha, one-leaf stage, assessed visually after about 3 weeks vs untreated controls
Excerpt: as §1

[5] = test system: DIGSA Digitaria sanguinalis; test: as above; settings: one-leaf stage, assessed visually after about 3 weeks vs untreated controls
Excerpt: as §1

SETVI Setaria viridis [6] = test: as above; settings: one-leaf stage, assessed visually after about 3 weeks vs untreated controls
Excerpt: as §1

AVEFA Avena fatua = test: as above; settings: one-leaf stage, assessed visually after about 3 weeks vs untreated controls
Excerpt: as §1

[7] = test system: ABUTH Abutilon theophrasti; test: Pre-emergence herbicidal action against harmful plants; settings: 80 g/ha, scored visually after 3 weeks vs untreated controls
Excerpt: (§2) The abbreviations used for the harmful plants mean: • ABUTH Abutilon theophrasti ALOMY Alopecurus myosuroides • AVEFA Avena fatua AMARE Amaranthus retroflexus • CYPES Cyperus esculentus DIGSA Digitaria sanguinalis • ECHCG Echinochloa crus-galli HORMU Hordeum murinum • LOLMU Lolium multiflorum LOLRI Lolium rigidum • MATIN Matricaria inodora PHBPU Pharbitis purpurea • POLCO Polygonum convolvulus SETVI Setaria viridis • STEME Stellaria media VERPE Veronica persica • VIOTR Viola tricolor 1. Pre-Emergence Herbicidal Action Against Harmful Plants Seeds of monocotyledonous and dicotyledonous weed plants and crop plants are laid out in sandy loam soil in wood-fiber pots and covered with soil. The compounds of the invention, formulated in the form of wettable powders (WP) or as emulsion concentrates (EC), are then applied to the surface of the covering soil in the form of an aqueous suspension or emulsion at a water application rate equivalent to 600 to 800 l/ha, with addition of 0.2% wetting agent. After the treatment, the pots are placed in a greenhouse and kept under good growth conditions for the trial plants. The damage to the test plants is scored visually after a test period of 3 weeks by comparison with untreated controls (herbicidal activity in percent (%): 100% activity=the plants have died, 0% activity=like control plants). […] The tables below illustrate, in an illustrative manner, the post-emergence herbicidal action of the compounds of the invention, the herbicidal activity being stated in percent.

[8] = test system: AMARE Amaranthus retroflexus; test: as above; settings: scored visually after 3 weeks vs untreated controls
Excerpt: as §2

[9] = test system: ALOMY Alopecurus myosuroides; test: as above; settings: 80 g/ha, scored visually after 3 weeks vs untreated controls
Excerpt: as §2

[10] = test system: POLCO Polygonum convolvulus; test: as above; settings: 80 g/ha, scored visually after 3 weeks vs untreated controls
Excerpt: as §2

PHBPU Pharbitis purpurea [11] = test: as above; settings: 80 g/ha, scored visually after 3 weeks vs untreated controls
Excerpt: as §2

[12] = test system: DIGSA Digitaria sanguinalis; test: as above; settings: scored visually after 3 weeks vs untreated controls
Excerpt: as §2

SETVI Setaria viridis [13] = test: as above; settings: 80 g/ha, scored visually after 3 weeks vs untreated controls
Excerpt: as §2

MATIN Matricaria inodora [14] = test: as above; settings: scored visually after 3 weeks vs untreated controls
Excerpt: as §2

[15] = test system: ECHCG Echinochloa crus-galli; test: as above; settings: scored visually after 3 weeks vs untreated controls
Excerpt: as §2

[16] = test system: ABUTH Abutilon theophrasti; test: Post-emergence herbicidal action against harmful plants; settings: one-leaf stage, assessed visually after about 3 weeks vs untreated controls
Excerpt: as §1

VERPE Veronica persica = test: as above; settings: one-leaf stage, assessed visually after about 3 weeks vs untreated controls
Excerpt: as §1

MATIN Matricaria inodora [17] = test: as above; settings: one-leaf stage, assessed visually after about 3 weeks vs untreated controls
Excerpt: as §1

SMILES	Post-emergence action at 20 g/ha against AMARE in % [1] [%]	Post-emergence action at 20 g/ha against PHBPU in % (PHBPU Pharbitis purpurea [4]) [%]	Post-emergence action at 20 g/ha against DIGSA in % [5] [%]	Pre-emergence action at 80 g/ha against ABUTH in % [7] [%]	Pre-emergence action at 20 g/ha against AMARE in % [8] [%]	Pre-emergence action at 80 g/ha against AMARE in % [8] [%]	Pre-emergence action at 80 g/ha against ALOMY in % [9] [%]	Pre-emergence action at 80 g/ha against POLCO in % [10] [%]	Pre-emergence action at 80 g/ha against PHBPU in % (PHBPU Pharbitis purpurea [11]) [%]	Pre-emergence action at 20 g/ha against DIGSA in % [12] [%]	Pre-emergence action at 80 g/ha against DIGSA in % [12] [%]	Pre-emergence action at 20 g/ha against MATIN in % (MATIN Matricaria inodora [14]) [%]	Pre-emergence action at 80 g/ha against MATIN in % (MATIN Matricaria inodora [14]) [%]	Pre-emergence action at 80 g/ha against ECHCG in % [15] [%]	further results
Cc1c(C(=O)Nc2nnnn2C)cc(Cl)c(C(F)(F)F)c1C(=O)NC1CC1 [Example 1-85]	80	80	90	100	100	100	80	80	80	100	100	80	100	80	Post-emergence action at 20 g/ha against ALOMY in % [2]: 80%; Post-emergence action at 20 g/ha against POLCO in % [3]: 80%; Post-emergence action at 20 g/ha against SETVI in % (SETVI Setaria viridis [6]): 80%; Post-emergence action at 20 g/ha against AVEFA in % (AVEFA Avena fatua): 80%; Pre-emergence action at 80 g/ha against SETVI in % (SETVI Setaria viridis [13]): 100%
CCN(C)C(=O)c1c(C(F)(F)F)cc(F)c(C(=O)Nc2nnnn2CC)c1C [Example 2-96]	90	90	90	90	100	100	80	80	80	80	90	80	90	80	Post-emergence action at 20 g/ha against ABUTH in % [16]: 80%; Post-emergence action at 5 g/ha against AMARE in % ([1]; 5 g/ha): 80%; Post-emergence action at 20 g/ha against VERPE in % (VERPE Veronica persica): 80%; Post-emergence action at 20 g/ha against MATIN in % (MATIN Matricaria inodora [17]): 80%
